# Legend:
# [1] = test system: bone mass of Tfr2-/- mice; experiment: Anisomycin treatment of WT and Tfr2-/- mice; assay type: in vivo; conditions: 5 mg/kg anisomycin for 3 weeks
# [2] = test system: Sost mRNA expression in osteoblasts; experiment: Sost mRNA expression (qPCR) in ex vivo differentiated osteoblasts after anisomycin; assay type: cell-based, mice; conditions: 100 nM anisomycin, 24 h
# Method: Primary murine osteoblasts were differentiated from the bone marrow using standard osteogenic medium in DMEM with 10% FCS, 1% penicillin/streptomycin (Life Technologies, Germany). RNA was isolated at various time points and day 7 osteoblasts were used for immunofluorescence analysis of Tfr2 and for the deep sequencing analysis.
# (§1) Signaling studies: day 7 differentiated cells were treated with 50 ng/ml BMP-2, BMP-4 or BMP-6 for 0, 20, and 40 min and lysed in protein lysis buffer (at least two independent experiments with 3 n each). Anisomycin was used to activate MAPK signaling on day 7 differentiated osteoblasts. Cells were treated with 100 nM anisomycin for 20 min for subsequent protein analysis. For RNA isolation and detection of gene expression, cells were treated with different doses of anisomycin for 24 h (two independent experiments with 3 n each).
# RNA from cell cultures was isolated with the High Pure RNA Isolation Kit (Roche) and RNA from the bones of mice was isolated by crushing flushed bones (femur and tibia) in liquid nitrogen and collecting the bone powder in Trifast (Peqlab, Germany). Other organs were homogenized directly in Trifast using an ultraturrax (IKA, Germany). […] The results were calculated using the ΔΔCT method and are presented in x-fold increase relative to β-actin (or GAPDH where indicated) mRNA levels.
# [3] = test system: ERK (pERK) and p38 (pp38) signaling in osteoblasts; experiment: Western blot of ERK and p38 activation in osteoblasts after anisomycin; assay type: cell-based, mice; conditions: 100 nM anisomycin for 20 min
# Method: as §1
# Cells were lysed in a buffer containing 20 mM Tris/HCl pH 7.4, 1% SDS, and a protease inhibitor (complete mini, Roche, Germany). To isolate protein from tissues, the protein fraction of the Trifast procedure was used and further processed according to the manufacturer's protocol. The protein concentration was determined using the BCA method (Pierce, Germany). Twenty μg of heatdenatured protein was loaded onto a 10% gel, separated, and transferred onto a 0.2 μm nitrocellulose membrane (Whatman, Germany). […]
# [4] = biological target: T1, Tfr2-ECD (Mus musculus, UniProt Q9JKX3); experiment: SPR binding of holo-Tf and BMP receptors to Tfr2-ECD immobilized on the sensor chip; set-up: species or system murine; conditions: increasing holo-Tf concentrations without intermediate regeneration
# T1 construct: full-length extracellular domain (ECD, aa 103-798) of murine Tfr2; His (N); MBP (N); c3 (protease site between MBP and ECD) (N); made in house; host or cells: Sf9 insect cells (baculovirus, pOCC211-Tfr2-ECD)
# T1 sequence (Q9JKX3 103-798): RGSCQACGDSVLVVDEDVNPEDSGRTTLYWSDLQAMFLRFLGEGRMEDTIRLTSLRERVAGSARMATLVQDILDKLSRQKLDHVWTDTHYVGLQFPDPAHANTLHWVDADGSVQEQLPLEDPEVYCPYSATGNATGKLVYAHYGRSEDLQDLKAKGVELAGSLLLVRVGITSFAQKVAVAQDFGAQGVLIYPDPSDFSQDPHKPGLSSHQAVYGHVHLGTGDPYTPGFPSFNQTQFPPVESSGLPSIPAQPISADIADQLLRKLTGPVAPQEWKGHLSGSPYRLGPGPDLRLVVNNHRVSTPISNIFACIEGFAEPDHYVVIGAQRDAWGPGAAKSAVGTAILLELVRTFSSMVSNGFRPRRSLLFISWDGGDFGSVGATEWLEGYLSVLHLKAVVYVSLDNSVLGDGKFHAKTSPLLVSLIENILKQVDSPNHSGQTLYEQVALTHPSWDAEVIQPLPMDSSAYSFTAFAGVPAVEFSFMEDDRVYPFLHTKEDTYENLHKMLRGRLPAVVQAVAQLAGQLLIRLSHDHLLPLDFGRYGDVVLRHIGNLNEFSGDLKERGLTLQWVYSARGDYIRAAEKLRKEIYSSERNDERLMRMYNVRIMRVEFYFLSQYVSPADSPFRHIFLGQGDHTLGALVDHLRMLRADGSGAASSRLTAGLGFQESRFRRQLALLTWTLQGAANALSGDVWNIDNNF
# Method: For this purpose, Tfr2-ECD is immobilized on a Series S Sensor Chip C1 (GE Healthcare), by means of coupling the amino groups at 25° C. The carboxyl groups on the chip surface are activated for 7 minutes using a mixture of 196 mM 1-ethyl-3-(3-dimethylaminopropyl) carbodiimide-hydrochloride and 50 mM n-hydroxysuccinimide at a flow rate of 10 μl/min. Subsequently, 5 μg/ml Tfr2-ECD, diluted with sodium acetate buffer (pH 4.5), is injected at a flow rate of 5 μl/min up to a relative occupancy of 200 RU. Non-reacted groups are inactivated by injecting 1 M thanolamine-HCl (pH 8.5) for 7 minutes at a flow rate of 10 μl/min. In order to prepare a reference surface, the same procedure is carried out but without Tfr2-ECD being injected.
# The binding assays are carried out at 37° C. at a flow rate of 30 μl/min. Each analyte is diluted by a running buffer (HBS-P, pH 7.4 together with 50 nM FeCl3). […] The values of the binding level are read out, relative to the baseline, 10 s before the end of the injection and are corrected with respect to the molar mass. […] The binding parameters are determined using the Biacore™ T100 evaluation software 2.03. […]
# For binding analysis, an injection of analyte for 240 s or 300 s over a Tfr2-ECD surface was followed by 1000 s dissociation. The values of the binding levels were recorded from referenced signals 10 s before the end of injection relative to baseline response. […]
# [5] = biological target: T2, BMP-2 binding to Tfr2-ECD (Homo sapiens, UniProt P12643); experiment: SPR competition / sequential injection experiments on Tfr2-ECD surface; conditions: sequential injection of BMP-2 and holo-Tf
# T2 construct: full-length extracellular domain (ECD, aa 103-798) of murine Tfr2; His (N); MBP (N); c3 (protease site between MBP and ECD) (N); host or cells: Sf9 insect cells (Tfr2-ECD)
# T2 sequence (P12643 283-396): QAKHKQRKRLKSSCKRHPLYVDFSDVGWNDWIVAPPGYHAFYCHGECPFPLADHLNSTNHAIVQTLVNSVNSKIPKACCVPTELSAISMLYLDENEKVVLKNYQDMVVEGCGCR
# Method: The binding analysis was performed at 37° C. at a flow rate of 30 μl/min. […] In some experiments, 500 mM NaCl were used to reduce potential non-specific binding. […] Concentration-dependent binding of holo-Tf was performed without intermediate regeneration.
Kd value of holo-Tf binding to Tfr2 [4],Competition with BMP-2 for binding to Tfr2 [5],Compound,Osteoclast numbers (Oc.S/BS) [1],Bone volume (BV/TV of the fourth lumbar vertebrae) ([1]; Tfr2-/- mice),Osteoblast numbers (N.Ob/B.Pm) ([1]; Tfr2-/- mice),Serum levels of sclerostin ([1]; Tfr2-/- mice),Increase of Sost mRNA expression ([2]; Tfr2 osteoblasts) [fold],Increase of Sost mRNA expression ([2]; WT osteoblasts) [fold],ERK and p38 phosphorylation [3]
–,–,COc1ccc(C[C@H]2NC[C@H](O)[C@H]2OC(C)=O)cc1 [anisomycin],not altered,decreased bone volume back to WT levels,reduced,increased,19,14,induced ERK and p38 phosphorylation
micromolar range,did not compete,"Holo-Tf: holo-transferrin, the only known Tfr2 ligand",–,–,–,–,–,–,–
